Test results reported in ChEMBL document CHEMBL4229347, “Design, synthesis, and biological evaluation of novel ubiquitin-activating enzyme inhibitors” (2018).
The source made the active and inactive calls. No cut-off for these calls is given here.

Columns and labels:
[1] = molecular target: T1, Ubiquitin-like modifier-activating enzyme 1 (Homo sapiens) (UniProt P22314); test: Inhibition of recombinant human E1 expressed in Escherichia coli BL21(DE3) assessed as reduction in biotin-labelled ubiquitin-E1 conjugate formation up to 1000 uM pretreated for 30 mins followed by biotin-labelled ubiquitin addition and measured after 30 mins by Western blot analysis
T1 sequence (whole entry): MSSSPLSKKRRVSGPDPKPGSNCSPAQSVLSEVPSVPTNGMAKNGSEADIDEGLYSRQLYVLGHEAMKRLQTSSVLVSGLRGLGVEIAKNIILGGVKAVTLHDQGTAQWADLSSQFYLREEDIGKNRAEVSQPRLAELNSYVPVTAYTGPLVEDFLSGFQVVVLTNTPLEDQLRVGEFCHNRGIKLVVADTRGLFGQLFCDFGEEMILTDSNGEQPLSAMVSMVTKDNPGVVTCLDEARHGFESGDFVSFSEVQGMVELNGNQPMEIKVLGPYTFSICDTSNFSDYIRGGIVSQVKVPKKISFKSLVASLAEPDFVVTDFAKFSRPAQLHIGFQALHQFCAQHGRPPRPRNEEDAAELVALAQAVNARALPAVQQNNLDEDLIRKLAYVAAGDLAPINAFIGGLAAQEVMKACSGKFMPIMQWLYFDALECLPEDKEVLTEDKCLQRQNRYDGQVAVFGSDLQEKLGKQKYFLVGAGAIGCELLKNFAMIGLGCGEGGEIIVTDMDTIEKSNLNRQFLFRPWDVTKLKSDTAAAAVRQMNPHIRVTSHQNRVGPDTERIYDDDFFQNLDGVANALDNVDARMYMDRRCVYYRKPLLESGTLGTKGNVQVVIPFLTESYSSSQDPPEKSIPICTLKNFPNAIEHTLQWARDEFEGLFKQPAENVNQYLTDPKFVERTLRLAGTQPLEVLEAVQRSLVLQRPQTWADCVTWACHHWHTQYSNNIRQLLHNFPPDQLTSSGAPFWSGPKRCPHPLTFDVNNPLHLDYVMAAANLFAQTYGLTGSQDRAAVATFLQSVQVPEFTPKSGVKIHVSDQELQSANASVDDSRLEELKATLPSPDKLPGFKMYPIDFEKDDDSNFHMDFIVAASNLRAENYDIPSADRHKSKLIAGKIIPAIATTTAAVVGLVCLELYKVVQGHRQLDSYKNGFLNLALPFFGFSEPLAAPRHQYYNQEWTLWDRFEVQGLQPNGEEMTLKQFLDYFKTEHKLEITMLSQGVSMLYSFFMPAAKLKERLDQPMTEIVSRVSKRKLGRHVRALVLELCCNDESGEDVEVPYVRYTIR

[2] = molecular target: Ubiquitin-conjugating enzyme E2 D2 (Homo sapiens) (UniProt P62837); test: Inhibition of E2 (unknown origin) assessed as reduction in biotin-labelled ubiquitin-E2 conjugate formation at 10 to 1000 uM pretreated for 30 mins followed by biotin-labelled ubiquitin addition and measured after 60 mins in presence of E1 by Western blot analysis
[3] = molecular target: Ubiquitin-conjugating enzyme E2 D2 (Homo sapiens) (UniProt P62837); test: Inhibition of E2 (unknown origin) assessed as reduction in biotin-labelled ubiquitin-E2 conjugate formation pretreated for 30 mins followed by biotin-labelled ubiquitin addition and measured after 60 mins in presence of E1 by Western blot analysis
[4] = molecular target: T1, Ubiquitin-like modifier-activating enzyme 1 (Homo sapiens); test: Inhibition of E1 in human MCF7 cells assessed as increase in p53 levels at 100 uM measured after 24 hrs by Western blot analysis; assay type: cell-based
[5] = molecular target: T1, Ubiquitin-like modifier-activating enzyme 1 (Homo sapiens); test: Inhibition of recombinant human E1 expressed in Escherichia coli BL21(DE3) assessed as reduction in biotin-labelled ubiquitin-E1 conjugate formation pretreated for 30 mins followed by biotin-labelled ubiquitin addition and measured after 30 mins by Western blot analysis
MCF7 = test: Growth inhibition of human MCF7 cells after 72 hrs by alamar blue assay; assay type: functional; conditions: MCF7, 72 h
[6] = molecular target: T1, Ubiquitin-like modifier-activating enzyme 1 (Homo sapiens); test: (§1) Reversible inhibition of recombinant human E1 expressed in Escherichia coli BL21(DE3) assessed as reduction in biotin-labelled ubiquitin-E1 conjugate formation at 100 uM pretreated for 60 mins followed by 2.5 uM biotin-labelled ubiquitin addition for 30 mins and subsequent 5 uM biotin-labelled ubiquitin addition by Western blot analysis
[7] = molecular target: T1, Ubiquitin-like modifier-activating enzyme 1 (Homo sapiens); test: as §1, with “ubiquitin addition measured after 30 mins by Western” for “ubiquitin addition by Western”

Chain of Ubiquitin-conjugating enzyme E2 D2 (Homo sapiens) (P62837 whole entry, looked up): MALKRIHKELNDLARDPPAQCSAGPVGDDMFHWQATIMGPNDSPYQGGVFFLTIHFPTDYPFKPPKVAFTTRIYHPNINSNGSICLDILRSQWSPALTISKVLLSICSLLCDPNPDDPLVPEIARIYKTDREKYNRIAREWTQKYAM

inhibition [1] | inhibition [2] | inhibition [3] | inhibition [4] | inhibition [5] | GI50 (MCF7) [µM] | inhibition [6] | inhibition [7] | SMILES
inactive | inactive | – | – | – | – | – | – | COC(=O)CNC(=O)CCCc1ccc(OCCCN)c(CCCC(C)C)c1
– | – | Dose-dependent effect | Active | Dose-dependent effect | 63.4 | Active | Active | COC(=O)CNC(=O)CCCc1ccc(OCCCNC(=O)c2ccccc2)c(CCCC(C)C)c1
Active | inactive | – | – | – | – | – | – | COC(=O)CNC(=O)CCCc1ccc(OCCCNC(C)=O)c(CCCC(C)C)c1
